According to patent US20240174680A1, “CDK2 INHIBITORS AND METHODS OF USING THE SAME” (Cedilla Therapeutics, Inc., priority 2021, published 2024):

The compounds below were run against CDK2/Cyclin E1 (Homo sapiens, UniProt P24941) (assay: CDK2/Cyclin E1 Caliper LabChip EZ Reader mobility shift assay). Conditions: read-out: Caliper Assay (CDK2/CCNE1): IC50.
Type: biochemical
Design: purchased Eurofins 14-475
Outline: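 Mobility-shift kinase assay: compound titrations preincubated 30 min with enzyme and ATP, reaction started with 5-FAM-QSPKKG-CONH2 peptide. Final 2.5 nM CDK2/Cyclin E1, 100 μM ATP, 1.5 μM peptide, HEPES pH 7.5; stopped with EDTA after 100 min. IC50 from four-parameter fit of normalized conversion ratio.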

| IC50 | Structure (SMILES) |
| --- | --- |
| ≤ 10 nM | C[C@@H](OCC1CCCCC1)[C@H](NC(=O)[C@@H]1CN(C(=O)c2cncs2)CC12CN(C(=O)[C@H]1CC1(C)C)C2)C(=O)N1CCOCC1 [I-198] |
| > 10000 nM | CNC(=O)[C@@H](NC(=O)[C@@H]1CN(C(=O)c2cnn(Cc3ccccc3)c2)CC12CN(C(=O)C1(CCOC)CC1)C2)[C@@H](C)OCc1ccccc1 [I-102A] |
| ≤ 10 nM | COC[C@H]1CCCN(C(=O)[C@@H](NC(=O)[C@@H]2CN(C(=O)c3cncs3)CC23CN(C(=O)[C@H]2CC2(C)C)C3)[C@@H](C)OC[C@H]2CC[C@H](OC(F)(F)F)CC2)C1 [I-435] |
| 1000 to 10000 nM | CNC(=O)[C@H](COCc1ccccc1)NC(=O)[C@@H]1CN(C(=O)c2cnn(Cc3ccccc3)c2)CC12CN(C(=O)C1(C(F)(F)F)CC1)C2 [I-113A, (S)-6-(1-benzyl-1H-pyrazole-4-carbonyl)-N—((S)-3-(benzyloxy)-1-(methylamino)-1-oxopropan-2-yl)-2-(1-(trifluoromethyl)cyclopropane-1-carbonyl)-2,6-diazaspiro[3.4]octane-8-carboxamide] |
| > 10000 nM | CNC(=O)[C@@H](NC(=O)[C@@H]1CN(C(=O)c2cnn(Cc3ccccc3)c2)CC12CN(C(=O)Cc1ccccc1)C2)[C@@H](C)OCc1ccccc1 [I-25A, (S)-6-(1-benzyl-1H-pyrazole-4-carbonyl)-N-((2S,3R)-3-(benzyloxy)-1-(methylamino)-1-oxobutan-2-yl)-2-(2-phenylacetyl)-2,6-diazaspiro[3.4]octane-8-carboxamide] |
| > 10000 nM | CNC(=O)[C@@H](NC(=O)[C@@H]1CN(Cc2cnco2)CC12CN(C(=O)[C@H]1CC1(C)C)C2)[C@@H](C)OCc1ccccc1 [I-78A, (S)—N-((2S,3R)-3-(benzyloxy)-1-(methylamino)-1-oxobutan-2-yl)-2-((S)-2,2-dimethylcyclopropane-1-carbonyl)-6-(oxazol-5-ylmethyl)-2,6-diazaspiro[3.4]octane-8-carboxamide] |
| 100 to 1000 nM | CNC(=O)[C@@H](NC(=O)[C@@H]1CN(C(=O)c2cnn(Cc3ccccc3)c2)CC12CN(C(=O)CC1CC1)C2)[C@@H](C)OCC1CCCCC1 [I-56A] |
| 1000 to 10000 nM | CNC(=O)[C@@H](NC(=O)[C@@H]1CN(C(=O)c2cnn(Cc3ccccc3)c2)CC12CN(C(=O)C1(C#N)CC1)C2)[C@@H](C)OCc1ccccc1 [I-73A] |
| 10 to 100 nM | C[C@@H](OCC1CCC(F)(F)CC1)[C@H](NC(=O)[C@@H]1CN(C(=O)c2cn[nH]c2)CC12CN(C(=O)C1(C(F)(F)F)CC1)C2)C(=O)N1CCC(F)(F)CC1 [I-188A] |
| 10 to 100 nM | C[C@@H](OCC1CCCCC1)C(NC(=O)[C@@H]1CN(C(=O)c2cncs2)CC12CN(C(=O)[C@H]1CC1(C)C)C2)c1nnco1 (stereo in doubt) [I-415, (S)—N-((1S,2R)-2-(cyclohexylmethoxy)-1-(1,3,4-oxadiazol-2-yl)propyl)-2-((S)-2,2-dimethylcyclopropane-1-carbonyl)-6-(thiazole-5-carbonyl)-2,6-diazaspiro[3.4]octane-8-carboxamide] |
| 10 to 100 nM | CNC(=O)[C@@H](NC(=O)[C@@H]1CN(C(=O)c2cn[nH]c2)CC12CN(C(=O)[C@H]1CC1(C)C)C2)[C@@H](C)OCC1CCCCC1 [I-66A, (S)—N-((2S,3R)-3-(cyclohexylmethoxy)-1-(methylamino)-1-oxobutan-2-yl)-2-((S)-2,2-dimethylcyclopropane-1-carbonyl)-6-(1H-pyrazole-4-carbonyl)-2,6-diazaspiro[3.4]octane-8-carboxamide] |
| 100 to 1000 nM | C[C@H](OC1CCN(C(=O)[C@@H]2CN(C(=O)c3cnn(Cc4ccccc4)c3)CC23CN(C(=O)[C@H]2CC2(C)C)C3)CC1)c1ccccc1 [I-275] |
| 1000 to 10000 nM | C[C@@H](OCC12CCC(CC1)OC2)[C@H](NC(=O)[C@@H]1CN(C(=O)c2sc(Cl)nc2Cl)CC12CN(C(=O)C(C)(C)C1CC1)C2)C(C)(C)O [I-471] |
| > 10000 nM | CNC(=O)[C@@H](NC(=O)[C@H]1CN(C(=O)c2cnn(Cc3ccccc3)c2)CC12CN(C(=O)C1CC1(C)C)C2)[C@@H](C)O (some centres unmarked) [I-88B] |
| 10 to 100 nM | C[C@@H](OCc1ccccc1)[C@H](NC(=O)C1CN(C(=O)c2cnn(Cc3ccccc3)c2)CC12CN(C(=O)[C@H]1CC1(C)C)C2)C(=O)N1CC2(CCC2)C1 (some centres unmarked) [I-106] |
| > 10000 nM | CNC(=O)[C@@H](NC(=O)[C@@H]1CN(Cc2cncs2)CC12CN(C(=O)[C@H]1CC1(C)C)C2)[C@@H](C)OCc1ccccc1 [I-51A] |
| 10 to 100 nM | CC1(C)C[C@@H]1C(=O)N1CC2(CN(C(=O)c3cncs3)C[C@H]2C(=O)N[C@@H](COCC2CCCCC2)C(=O)N2CCCCC2)C1 [I-286] |
| 10 to 100 nM | C[C@@H](OC(C)(C)C1CCCCC1)[C@H](NC(=O)[C@@H]1CN(C(=O)c2cncs2)CC12CN(C(=O)[C@H]1CC1(C)C)C2)C(=O)N1CCCCC1 [I-395] |
| 1000 to 10000 nM | CCCC(=O)N1CC2(C1)CN(C(=O)c1cnn(Cc3ccccc3)c1)C[C@H]2C(=O)N[C@H](C(=O)NC)[C@@H](C)OCc1ccccc1 [I-60A] |
| ≤ 10 nM | C[C@@H](OCc1ccccc1)[C@H](NC(=O)[C@@H]1CN(C(=O)c2cnn(Cc3ccccc3)c2)CC12CN(C(=O)[C@H]1CC1(C)C)C2)C(=O)N1CCC(F)(F)CC1 [I-280] |
| 100 to 1000 nM | CNC(=O)[C@@H](NC(=O)[C@H]1CN(C(=O)c2cnn(Cc3ccc(F)cc3)c2)CC12CN(C(=O)[C@H]1CC1(C)C)C2)[C@@H](C)OCC1CCC(F)(F)CC1 [I-167] |
| 10 to 100 nM | CNC(=O)[C@@H](NC(=O)[C@@H]1CN(C(=O)c2scnc2C)CC12CN(C(=O)[C@H]1CC1(C)C)C2)[C@@H](C)OCC1CCCCC1 [I-160A] |

| IC50 | Structure (SMILES) |
| --- | --- |
| > 10000 nM | CNC(=O)[C@@H](NC(=O)[C@H]1CN(C(=O)c2cnc(C3CC3)s2)CC12CN(C(=O)[C@H]1CC1(C)C)C2)[C@@H](C)OCC1CCCCC1 [I-178B] |
| ≤ 10 nM | C[C@@H](OCC1CCCCC1)[C@H](NC(=O)[C@@H]1CN(C(=O)c2cnn(Cc3ccccc3)c2)CC12CN(C(=O)[C@H]1CC1(C)C)C2)C(=O)N1CCC(c2nccs2)CC1 [I-445] |
| 1000 to 10000 nM | CC(C)(O)C(NC(=O)[C@@H]1CN(C(=O)c2cncs2)CC12CN(C(=O)C(C)(C)C1CC1)C2)c1cccc(C2CCOCC2)n1 (some centres unmarked) [I-339] |
| 1000 to 10000 nM | CNC(=O)[C@H](CS(=O)(=O)Cc1ccccc1)NC(=O)[C@@H]1CN(C(=O)c2cnn(Cc3ccccc3)c2)CC12CN(C(=O)[C@H]1CC1(C)C)C2 [I-226] |
| 100 to 1000 nM | CNC(=O)[C@@H](NC(=O)[C@H]1CN(C(=O)c2cnc(COC(C)(C)C)s2)CC12CN(C(=O)[C@H]1CC1(C)C)C2)[C@@H](C)OCC1CCCCC1 [I-175B] |
| 100 to 1000 nM | CC1(C)C[C@@H]1C(=O)N1CC2(CN(C(=O)c3cnn(Cc4ccccc4)c3)C[C@H]2C(=O)N[C@H]2C[C@@H]2c2cccc(Cl)c2)C1 [I-140A] |
| > 10000 nM | CNC(=O)[C@@H](NC(=O)[C@H]1CN(Cc2cnc[nH]2)CC12CN(C(=O)[C@H]1CC1(C)C)C2)[C@@H](C)OCc1ccccc1 [I-77B] |
| 10 to 100 nM | C[C@@H](OCC1CCOCC1)[C@@H](COC1CCC(F)(F)CC1)NC(=O)[C@@H]1CN(C(=O)c2cncs2)CC12CN(C(=O)[C@H]1CC1(C)C)C2 [I-312] |
| > 10000 nM | CCCCC1CC1C(=O)N1CC2(CN(C(=O)c3cnn(Cc4ccccc4)c3)C[C@@H]2C(=O)N[C@H](C(=O)NC)[C@@H](C)OCc2ccccc2)C1 (some centres unmarked) [I-94B] |
| 100 to 1000 nM | CNC(=O)[C@@H](NC(=O)[C@@H]1CN(C(=O)c2c[nH]c(=O)s2)CC12CN(C(=O)[C@H]1CC1(C)C)C2)[C@@H](C)OCC1CCCCC1 [I-184] |
| 100 to 1000 nM | CNC(=O)[C@@H](NC(=O)[C@@H]1CN(C(=O)c2cnn(Cc3ccccc3)c2)CC12CN(C(=O)CC(F)(F)F)C2)[C@@H](C)OCc1ccccc1 [I-87A] |
| 1000 to 10000 nM | CNC(=O)[C@@H](NC(=O)[C@@H]1CN(C(=O)c2cnn(Cc3ccccc3)c2)CC12CN(C(=O)[C@H]1CC1(C)C)C2)[C@@H](C)N(C)CC1CCCCC1 [I-266] |
| 100 to 1000 nM | CC(O[C@H](C)[C@@H](COC1CCC(F)(F)CC1)NC(=O)[C@@H]1CN(C(=O)c2cncs2)CC12CN(C(=O)[C@H]1CC1(F)F)C2)C1CCC(F)(F)CC1 (some centres unmarked) [I-316] |
| ≤ 10 nM | C[C@@H](OCC1CCCCC1)[C@H](NC(=O)[C@@H]1CN(C(=O)c2cnn(Cc3ccccc3)c2)CC12CN(C(=O)[C@H]1CC1(C)C)C2)C(=O)N1CC(CN)C1 [I-239] |
| 10 to 100 nM | C[C@@H]1C[C@H](C)CN(C(=O)[C@@H](NC(=O)C2CN(C(=O)c3cnn(Cc4ccccc4)c3)CC23CN(C(=O)[C@H]2CC2(C)C)C3)[C@@H](C)OCc2ccccc2)C1 (some centres unmarked) [I-22] |
| ≤ 10 nM | CNC(=O)[C@@H](NC(=O)[C@@H]1CN(C(=O)c2cncs2)CC12CN(C(=O)[C@H]1CC1(C)C)C2)[C@@H](C)OCC1CC2CCC1C2 (some centres unmarked) [I-465] |
| 100 to 1000 nM | CC1(C)C[C@@H]1C(=O)N1CC2(CN(C(=O)c3cnn(Cc4ccccc4)c3)C[C@H]2C(=O)N2CCC(Cc3ccccc3)CC2)C1 [I-58A] |
| ≤ 10 nM | COC[C@H]1CCCN(C(=O)[C@@H](NC(=O)[C@@H]2CN(C(=O)c3cncs3)CC23CN(C(=O)C(C)(C)C2CC2)C3)[C@@H](C)OCC2CCCCC2)C1 [I-389] |
| ≤ 10 nM | C[C@@H](OCC1CCCCC1)[C@H](NC(=O)[C@@H]1CN(C(=O)c2cnn(Cc3ccccc3)c2)CC12CN(C(=O)[C@H]1CC1(C)C)C2)C(=O)N1CCC[C@@H](N)C1 [I-218] |
| ≤ 10 nM | COC[C@H]1CCCN(C(=O)[C@@H](NC(=O)[C@@H]2CN(C(=O)c3cncs3)CC23CN(C(=O)[C@H]2CC2(C)C)C3)[C@@H](C)OC(C)C2CCC(F)(F)CC2)C1 (some centres unmarked) [I-360] |
| > 10000 nM | CNC(=O)[C@@H](NC(=O)[C@@H]1CN(C(=O)c2cnn(CC(F)(F)F)c2)CC12CN(C(=O)CC1CC1)C2)[C@@H](C)OCc1ccccc1 [I-43A] |
| 100 to 1000 nM | CNC(=O)[C@@H](NC(=O)[C@@H]1CN(C(=O)c2cnn(Cc3ccccc3)c2)CC12CN(C(=O)N(C)C(C)C)C2)[C@@H](C)OCC1CCCCC1 [I-274, (S)-6-(1-benzyl-1H-pyrazole-4-carbonyl)-N8-((2S,3R)-3-(cyclohexylmethoxy)-1-(methylamino)-1-oxobutan-2-yl)-N2-isopropyl-N2-methyl-2,6-diazaspiro[3.4]octane-2,8-dicarboxamide] |
